According to paper PMC5078989, “Targeted inhibition of the COP9 signalosome for treatment of cancer” (Nature Communications, 2016):

Tested on: panel of cancer cell lines
Experiment: Cell viability (CellTiter-Glo) dose-response across cancer cell line panel;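 further: after 72 h compound incubation with CellTiter-Glo ATP readout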
Format: cell-based, human
Conditions: Homo sapiens
Text: Next, we explored the effect of CSN5 inhibition on the viability of cancer cells. To obtain a comprehensive picture, we generated dose–response curves with a CSN5 inhibitor across more than 500 cancer cell lines in a previously described standardized setting[47] (Supplementary Data 1).
A standardized CellTiter-Glo Assay (Promega #G7570) based on the quantification of ATP was applied according to the manufacturer's protocol to measure the amount of viable cells in culture. In brief, cells were seeded into 384-well plates at optimal density for each cell line. After 4 h, compounds were added at different concentrations in growth medium and incubated for another 72 h in a humidifying chamber at 37 °C and 5% CO2. […] EC50 values were calculated from the plot of percentage of inhibition versus inhibitor concentration using the nonlinear regression analysis software Origin 7.5SR6 (OriginLab Corp.).

- EC50 (HEC-251, HEC-251): 8.16 µM
- EC50 (HEC-265): 20 µM
- EC50 (HEL): 0.19 µM
- EC50 (HEL 92.1.7, HEL 92.1.7): 0.0948 µM
- EC50 (HEY A8, Hey-A8): 0.114 µM
- EC50 (HL-60, HL-60): 0.361 µM
- EC50 (HLC-1): 0.981 µM
- EC50 (HLE): 0.454 µM
- EC50 (HLF): 0.739 µM
- EC50 (HMC-1-8): 0.154 µM
- EC50 (HPAC): 0.83 µM
- EC50 (HPBALL, HPB-ALL): 0.333 µM
- EC50 (HRT-18, HRT-18): 1.86 µM
- EC50 (HSC-2, HSC-2): 0.146 µM
- EC50 (HSC-3, HSC-3): 0.292 µM
- EC50 (HSC-4, HSC-4): 0.268 µM
- EC50 (HT-29, HT-29): 2.23 µM
- EC50 (HT-1080, HT-1080): 0.215 µM
- EC50 (Hep3B): 2.56 µM
- EC50 (Hep 3B2.1-7): 4.28 µM
- EC50 (Hs 294T): 1.86 µM
- EC50 (Hs 695T): 0.719 µM
- EC50 (Hs766T, Hs 766T): 18.8 µM
- EC50 (Hs 852.T): 0.804 µM
- EC50 (Hs 936.T): 0.202 µM
- EC50 (Hs 939.T): 0.6 µM
- EC50 (Hs 944.T): 0.898 µM
- EC50 (HuH-6, HuH-6): 4.96 µM
- EC50 (HuP-T4, HUP-T4): 0.36 µM
- EC50 (Huh-7, HuH-7): 0.723 µM
- EC50 (IGR-37, IGR-37): 0.613 µM
- EC50 (IGR-39, IGR-39): 0.545 µM
- EC50 (IGROV-1, IGROV1): 0.399 µM
- EC50 (IPC-298, IPC-298): 0.716 µM
- EC50 (IST-MES2): 0.421 µM
- EC50 (Ishikawa): 0.213 µM
- EC50 (J82, J82): 1.65 µM
- EC50 (JHH7, JHH-7): 12.2 µM
- EC50 (JHH-4, JHH-4): 0.594 µM
- EC50 (JHOM-1): 1.3 µM
- EC50 (JHOS-2): 0.274 µM
- EC50 (JHUEM-2): 0.952 µM
- EC50 (JHUEM-3): > 30 µM
- EC50 (JIMT-1, JIMT-1): 8.67 µM
- EC50 (JL-1): 2.29 µM
- EC50 (JU77): 0.304 µM
- EC50 (JVM-2, JVM-2): 0.0835 µM
- EC50 (K029AX): 1.74 µM
- EC50 (KARPAS-422, KARPAS-422): 0.654 µM
- EC50 (KATO III): 0.711 µM
- EC50 (KBM-7, KBM-7): 0.106 µM
- EC50 (KCI-MOH1): 2 µM
- EC50 (KE-97, KE-97): 0.21 µM
- EC50 (KLE): 0.897 µM
- EC50 (KM12, KM12): 1.57 µM
- EC50 (KMM-1, KMM-1): 0.462 µM
- EC50 (KMRC-1, KMRC-1): 0.435 µM
- EC50 (KMRC-20): 1.52 µM
- EC50 (KMS-11, KMS-11): 0.426 µM
- EC50 (KNS-42, KNS-42): 0.282 µM
- EC50 (KNS-60): 0.486 µM
- EC50 (KNS-62, KNS-62): 0.398 µM
- EC50 (KP-1N): 15.6 µM
- EC50 (KP-1NL): 13.6 µM
- EC50 (KP-2): 4.05 µM
- EC50 (KP-4, KP4): 0.828 µM
- EC50 (KS-1): 0.336 µM
- EC50 (KU-19-19, KU-19-19): 0.922 µM
- EC50 (KURAMOCHI): 1.25 µM
- EC50 (KYSE-30, KYSE-30): 0.356 µM
- EC50 (KYSE-70, KYSE-70): 1.06 µM
- EC50 (KYSE-150, KYSE-150): 0.725 µM
- EC50 (KYSE-180, KYSE-180): 1.29 µM
- EC50 (Kasumi-3, Kasumi3): 0.292 µM
- EC50 (Kasumi-6): 0.287 µM
- EC50 (L3.3): 0.12 µM
- EC50 (L-363, L-363): 0.139 µM
- EC50 (L-428, L-428): 3.08 µM
- EC50 (LC-1/sq-SF): 0.926 µM
- EC50 (LC-1F): 0.586 µM
- EC50 (LC-2-ad, LC2/ad): 0.54 µM
- EC50 (LCLC-103H): 0.573 µM
- EC50 (LIM1899): 2.31 µM
- EC50 (LIM2099): 0.44 µM
- EC50 (LIM2405): 0.305 µM
- EC50 (LIM2550): 0.0535 µM
- EC50 (LMSU): 0.1 µM
- EC50 (LN-18, LN-18): 0.178 µM
- EC50 (LO68): 3.75 µM
- EC50 (LOU-NH91, LOU-NH91): 0.296 µM
- EC50 (LOX IMVI): 0.262 µM
- EC50 (LP-1, LP-1): 0.536 µM
- EC50 (LS180, LS 180): 0.175 µM
- EC50 (LUDLU-1, LUDLU-1): 2.51 µM
- EC50 (Li-7, Li-7): 0.827 µM
- EC50 (Lu-65, LU65): 0.922 µM
- EC50 (Lu-99, LU99): 0.0985 µM
- EC50 (M-07e): 1.02 µM
- EC50 (MCAS): 0.529 µM
- EC50 (MCC13): 4.25 µM
- EC50 (MCC14/2): 0.0361 µM
- EC50 (MCC26): 0.652 µM
- EC50 (MDA-MB-134-VI): 0.678 µM
- EC50 (MDA-MB-157, MDA-MB-157): 8.45 µM
- EC50 (MDA-MB-175-VII): 0.448 µM
- EC50 (MDA-MB-231, MDA-MB-231): 0.422 µM
- EC50 (MDA-MB-415, MDA-MB-415): > 30 µM
- EC50 (MDA-MB-435S): 3.55 µM
- EC50 (MDA-MB-436, MDA-MB-436): 1.43 µM
- EC50 (MDA-MB-453, MDA-MB-453): 0.106 µM
- EC50 (MDA-MB-468, MDA-MB-468): 0.396 µM
- EC50 (MDST8, MDST8): 0.311 µM
- EC50 (ME-180, ME180): 0.177 µM
- EC50 (MEC1, MEC-1): 0.302 µM
- EC50 (MEL-HO): 0.873 µM
- EC50 (MEL-JUSO): 0.364 µM
- EC50 (MES-SA): 0.932 µM
- EC50 (MFE-280, MFE-280): 0.364 µM
- EC50 (MFE-296, MFE-296): 0.109 µM
- EC50 (MFE-319): 3.66 µM
- EC50 (MFM-223, MFM223): 0.105 µM
- EC50 (MG-63, MG-63): 0.261 µM
- EC50 (MIA PaCa-2, MIA PaCa-2): 0.518 µM
- EC50 (MINO): 0.0131 µM
- EC50 (MKN-1, MKN1): 1.02 µM
- EC50 (MKN-45, MKN-45): 0.363 µM
- EC50 (ML-2, ML-2): 0.0571 µM
- EC50 (MM127): 0.325 µM
- EC50 (MM138): 0.251 µM
- EC50 (MM170): 0.334 µM
- EC50 (MM253): 0.0355 µM
- EC50 (MM370): 0.273 µM
- EC50 (MM383): 0.281 µM
- EC50 (MM386): 0.95 µM
- EC50 (MM415): 0.675 µM
- EC50 (MM426): 0.754 µM
- EC50 (MM466): 2.56 µM
- EC50 (MM473, MM473): 0.589 µM
- EC50 (MM485): 0.82 µM
- EC50 (MM537): 0.0846 µM
- EC50 (MM576): 0.511 µM
- EC50 (MM603): 0.415 µM
- EC50 (MOG-G-CCM): 2.35 µM
- EC50 (MOLM-13, MOLM-13): 0.0463 µM
- EC50 (MOLP-8, MOLP-8): 0.132 µM
Compound: NS(=O)(=O)OC[C@@H]1C[C@@H](n2ccc3c(N[C@H]4CCc5ccccc54)ncnc32)C[C@@H]1O [MLN4924]
